Laboratory results reported in patent US10307353B2, “1-phenylmono- or -polyhydroxypropane compounds, compositions and cosmetic uses thereof” (L'OREAL, priority 2015, dated 2019).

Tested on: AMPK (phospho-AMPK Thr-172)
Assay: Level of expression of p-AMPK (Thr-172) in normal human epidermal keratinocytes, Western blotting
Type: cell-based
Settings: for p-AMPK/AMPK ratio relative to the control (100%): 18 hours incubation; for p-AMPK/GAPDH ratio relative to the control (100%): 48 hours incubation
Experimental: Normal human epidermal keratinocytes are seeded at 180 000 cells per well and cultured in SFM culture medium (supplier Gibco) supplemented with 0.25 ng/ml EGF, 25 μg/ml of pituitary extract and 25 μg/ml gentamicin, up to confluence, and incubated in a humid oven at 37° C. and 5% CO2. The culture medium was then replaced with test medium (SFM (Gibco) supplemented with 25 μg/ml gentamicin) containing or not containing (control) the test compounds, or the references (AICAR—(5-amino-4-imidazole carboxamide riboside) at 500 μM). The cells were then incubated for 18 or 48 hours. The level of expression of p-AMPK was analyzed by Western blotting. At the end of the incubation, the proteins were extracted and quantified and then separated by electrophoresis on 10% polyacrylamide gel and then transferred onto a nitrocellulose membrane. […] Between each successive revelation, the antibodies were detached using a “stripping” buffer. The images were acquired with a Fuji LAS 3000 chemiluminescence scanner (Fujifilm) and the densitometric analyses were performed using the Multigauge software (Fujifilm). An increase in the phosphorylated form of AMPK (active form of the enzyme) relative to the control is evaluated in this test. Results Expressed in the form of the p-AMPK/GAPDH ratio relative to the control (100%): […]

| Structure (SMILES) | p-AMPK/AMPK ratio relative to the control (100%) (500 μM) | p-AMPK/GAPDH ratio relative to the control (100%) (500 μM) | p-AMPK/GAPDH ratio relative to the control (100%) (1 μM) | p-AMPK/GAPDH ratio relative to the control (100%) (10 μM) | p-AMPK/GAPDH ratio relative to the control (100%) (100 μM) |
| --- | --- | --- | --- | --- | --- |
| NC(=O)c1ncn([C@@H]2O[C@H](CO)[C@@H](O)[C@H]2O)c1N [AICAR, 5-amino-4-imidazole carboxamide riboside, reference compound] | 177% ± 31% | 279 ± 96% | – | – | – |
| COc1cc(CC(C)O)ccc1O (stereo not drawn) [Compound 1] | 132% ± 11% | – | – | – | – |
| COc1cc(CC(O)CO)ccc1O (stereo not drawn) [Compound 5] | – | – | 116 ± 17% | 149 ± 25% | 136 ± 14% |
